Laboratory results from patent US7579344B2, “Pyrimidine derivatives possessing cell-cycle inhibitors activity” (Astrazeneca AB, priority 2003, dated 2009).
pIC50: −log10 of the molar value.

Biological target: T1, CDK2/Cyclin E (Homo sapiens, UniProt P24941)
T1 construct: The open reading frames of CDK2 and Cyclin E were isolated; made in house; host or cells: Sf21 (Spodoptera frugiperda) insect cells, baculovirus co-infection; the GST-Rb substrate was made in E. coli BL21 (DE3) pLysS
Assay: in vitro kinase Scintillation Proximity Assay, incorporation of [γ-33-P]-ATP into GST-Rb
Type: biochemical
Details: GST-Rb substrate, 0.2 μM ATP, 60 minutes at room temperature
Protocol: The compounds were tested in an in vitro kinase assay in 96 well format using Scintillation Proximity Assay (SPA - obtained from Amersham) for measuring incorporation of [γ-33-P]-Adenosine Triphosphate into a test substrate (GST-Retinoblastoma protein; GST-Rb). In each well was placed the compound to be tested (diluted in DMSO and water to correct concentrations) and in control wells either roscovitine as an inhibitor control or DMSO as a positive control.
Approximately 0.2 μl of CDK2/Cyclin E partially-purified enzyme (amount dependent on enzyme activity) diluted in 25 μl incubation buffer was added to each well then 20 μl of GST-Rb/ATP/ATP33 mixture (containing 0.5 μg GST-Rb and 0.2 μM ATP and 0.14 μCi [γ-33-P]-Adenosine Triphosphate in incubation buffer), and the resulting mixture shaken gently, then incubated at room temperature for 60 minutes.
To each well was then added 150 μL stop solution containing (0.8 mg/well of Protein A-PVT SPA bead (Amersham)), 20 pM/well of Anti-Glutathione Transferase, Rabbit IgG (obtained from Molecular Probes), 61 mM EDTA and 50 mM HEPES pH 7.5 containing 0.05% sodium azide.
The plates were sealed with Topseal-S plate sealers, left for two hours then spun at 2500 rpm, 1124 xg., for 5 minutes. The plates were read on a Topcount for 30 seconds per well.
The incubation buffer used to dilute the enzyme and substrate mixes contained 50 mM HEPES pH7.5, 10 mM MnCl2, 1 mM DTT, 100 μM Sodium vanadate, 100 μM NaF, 10 mM Sodium Glycerophosphate, BSA (1 mg/ml final).
In this assay only part of the retinoblastoma protein (Science 1987 Mar. 13;235(4794):1394-1399; Lee W. H., Bookstein R., Hong F., Young L. J., Shew J. Y., Lee E. Y.) was used, fused to a GST tag. […]
The open reading frames of CDK2 and Cyclin E were isolated by reverse transcriptase-PCR using HeLa cell and activated T cell mRNA as a template and cloned into the insect expression vector pVL1393 (obtained from Invitrogen 1995 catalogue number: V1392-20). […]

pIC50	Structure (SMILES)
7.68	c1ccc(Nc2nccc(-c3cnc4n3CCCC4)n2)cc1 [Example 2, 2-anilino-4-(5,6,7,8-tetrahydroimidazo[1,2-a]pyridin-3-yl)pyrimidine]
7.38	c1ccc(Nc2nccc(-c3cnc4n3CCOC4)n2)cc1 [Example 5, 2-Anilino-4-(5,6-dihydro-8H-imidazo[2,1-c][1,4]oxazin-3-yl)pyrimidine]
7.89	COCCNS(=O)(=O)c1ccc(Nc2nccc(-c3cnc4n3CCOC4)n2)cc1 [Example 9]
